# Legend:
# c-Raf = c-Raf (Homo sapiens, UniProt P04049); assay: Luciferase-coupled chemiluminescence kinase assay (ATP consumption), c-Raf; format: biochemical; settings: read-out: cRaf-1 IC50
# Method in brief: (§1)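 Read-out: percent ATP consumed, quantified by luciferase/luciferin chemiluminescence after the kinase step. ATP consumption was held at 25-60%. Kinase ([…]) plus compound were preincubated 30 min at RT in Tris pH 7.5 buffer with MgCl2, Triton and DTT, then reacted with ATP for 3 h.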
# B-Raf = B-Raf (Homo sapiens, UniProt P15056); assay: Luciferase-coupled chemiluminescence kinase assay (ATP consumption), B-Raf; format: biochemical; settings: read-out: bRaf IC50
# Method in brief: as §1
# c-Raf, sequence (P04049 whole entry): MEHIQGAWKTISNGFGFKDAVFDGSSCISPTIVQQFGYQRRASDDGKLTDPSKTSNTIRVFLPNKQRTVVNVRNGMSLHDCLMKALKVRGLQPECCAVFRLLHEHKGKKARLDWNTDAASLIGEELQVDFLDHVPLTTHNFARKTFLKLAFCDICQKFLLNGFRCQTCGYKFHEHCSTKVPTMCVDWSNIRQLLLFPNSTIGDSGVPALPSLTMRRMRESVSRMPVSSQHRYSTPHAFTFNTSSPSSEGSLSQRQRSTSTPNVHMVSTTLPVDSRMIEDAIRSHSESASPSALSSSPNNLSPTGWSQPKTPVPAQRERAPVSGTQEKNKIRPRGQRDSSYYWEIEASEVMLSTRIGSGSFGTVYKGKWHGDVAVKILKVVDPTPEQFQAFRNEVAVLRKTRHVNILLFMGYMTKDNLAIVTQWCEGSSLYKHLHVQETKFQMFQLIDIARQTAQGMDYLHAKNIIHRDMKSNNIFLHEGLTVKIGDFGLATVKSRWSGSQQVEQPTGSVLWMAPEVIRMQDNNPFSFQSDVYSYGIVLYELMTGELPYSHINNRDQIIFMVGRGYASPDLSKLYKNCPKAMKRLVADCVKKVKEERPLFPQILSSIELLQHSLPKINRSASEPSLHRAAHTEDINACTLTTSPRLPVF
# B-Raf, sequence (P15056 whole entry): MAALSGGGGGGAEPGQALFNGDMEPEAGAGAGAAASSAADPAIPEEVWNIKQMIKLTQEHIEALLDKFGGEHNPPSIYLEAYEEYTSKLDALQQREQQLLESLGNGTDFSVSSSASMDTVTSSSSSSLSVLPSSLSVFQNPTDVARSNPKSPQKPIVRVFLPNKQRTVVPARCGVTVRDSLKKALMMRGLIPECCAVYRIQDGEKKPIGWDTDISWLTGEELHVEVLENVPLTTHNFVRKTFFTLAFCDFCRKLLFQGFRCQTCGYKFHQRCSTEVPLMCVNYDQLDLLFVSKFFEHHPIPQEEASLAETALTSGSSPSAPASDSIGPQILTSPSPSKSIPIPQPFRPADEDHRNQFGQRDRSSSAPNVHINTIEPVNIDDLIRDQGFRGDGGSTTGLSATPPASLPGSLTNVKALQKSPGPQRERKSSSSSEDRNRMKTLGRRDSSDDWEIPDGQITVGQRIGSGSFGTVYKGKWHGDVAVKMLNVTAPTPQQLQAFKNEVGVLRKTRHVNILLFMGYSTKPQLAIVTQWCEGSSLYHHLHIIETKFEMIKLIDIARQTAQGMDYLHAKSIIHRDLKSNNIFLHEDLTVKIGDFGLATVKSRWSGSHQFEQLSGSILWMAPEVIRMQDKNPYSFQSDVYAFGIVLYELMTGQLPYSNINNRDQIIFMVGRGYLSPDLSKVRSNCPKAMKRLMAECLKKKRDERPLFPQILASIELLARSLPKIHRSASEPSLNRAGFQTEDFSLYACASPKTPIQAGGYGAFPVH
SMILES,IC50 (c-Raf) [nM],IC50 (B-Raf) [nM]
"COC(=O)Nc1nc2cc(C3(O)c4ccccc4C(=O)N3C(C)c3cc(Cl)cs3)ccc2[nH]1 (stereo not drawn) [Entry 233, methyl (5-{2-[1-(4-chloro-2-thienyl)ethyl]-1-hydroxy-3-oxo-2,3-dihydro-1H-isoindol-1-yl}-1H-benzimidazol-2-yl)carbamate]",< 100,< 100
"COC(=O)Nc1nc2cc(C3(O)c4ccccc4C(=O)N3c3cccc(C(=O)c4ccccc4)c3)ccc2[nH]1 (stereo not drawn) [Entry 234, methyl (5-{1-hydroxy-3-oxo-2-[3-(phenylcarbonyl)phenyl]-2,3-dihydro-1H-isoindol-1-yl}-1H-benzimidazol-2-yl)carbamate]",100 to 1000,1000 to 10000
"COC(=O)Nc1nc2cc(C3(O)c4ccccc4C(=O)N3c3cccc(CN(C)C)c3)ccc2[nH]1 (stereo not drawn) [Entry 235, methyl [5-(2-{3-[(dimethylamino)methyl]phenyl}-1-hydroxy-3-oxo-2,3-dihydro-1H-isoindol-1-yl)-1H-benzimidazol-2-yl]carbamate]",100 to 1000,100 to 1000
"COC(=O)Nc1nc2cc(C3(O)c4ccccc4C(=O)N3c3cccc(S(N)(=O)=O)c3)ccc2[nH]1 (stereo not drawn) [Entry 236, methyl (5-{2-[3-(aminosulfonyl)phenyl]-1-hydroxy-3-oxo-2,3-dihydro-1H-isoindol-1-yl}-1H-benzimidazol-2-yl)carbamate]",100 to 1000,100 to 1000
"COC(=O)Nc1nc2cc(C3(O)c4ccccc4C(=O)N3c3cccc(C(C)=O)c3)ccc2[nH]1 (stereo not drawn) [Entry 237, methyl {5-[2-(3-acetylphenyl)-1-hydroxy-3-oxo-2,3-dihydro-1H-isoindol-1-yl]-1H-benzimidazol-2-yl}carbamate]",< 100,< 100

# Results, then the molecule that gave them:
IC50 (c-Raf) [nM],IC50 (B-Raf) [nM],SMILES
< 100,< 100,"C#Cc1cc(N2C(=O)c3ccccc3C2(O)c2ccc3[nH]c(NC(=O)OC)nc3c2)ccc1F (stereo not drawn) [Entry 226, methyl {5-[2-(3-ethynyl-4-fluorophenyl)-1-hydroxy-3-oxo-2,3-dihydro-1H-isoindol-1-yl]-1H-benzimidazol-2-yl}carbamate]"
< 100,< 100,"COC(=O)Nc1nc2cc(C3(O)c4ccccc4C(=O)N3c3ccc(F)c(C)c3)ccc2[nH]1 (stereo not drawn) [Entry 227, methyl {5-[2-(4-fluoro-3-methylphenyl)-1-hydroxy-3-oxo-2,3-dihydro-1H-isoindol-1-yl]-1H-benzimidazol-2-yl}carbamate]"
< 100,< 100,"COC(=O)Nc1nc2ccc(C3(O)c4ccccc4C(=O)N3c3ccc(Cl)c(Cl)c3F)cc2[nH]1 (stereo not drawn) [Entry 228, methyl {6-[2-(3,4-dichloro-2-fluorophenyl)-1-hydroxy-3-oxo-2,3-dihydro-1H-isoindol-1-yl]-1H-benzimidazol-2-yl}carbamate]"
< 100,< 100,"CC1(C)OC[C@@H](COC(=O)Nc2nc3cc(C4(O)c5ccccc5C(=O)N4Cc4ccccc4)ccc3[nH]2)O1 (stereo partly drawn) [Entry 229, [(4S)-2,2-dimethyl-1,3-dioxolan-4-yl]methyl {5-[1-hydroxy-3-oxo-2-(phenylmethyl)-2,3-dihydro-1H-isoindol-1-yl]-1H-benzimidazol-2-yl}carbamate]"
< 100,< 100,"COC(=O)Nc1nc2cc(C3(O)c4ccccc4C(=O)N3c3cc(Br)ccc3F)ccc2[nH]1 (stereo not drawn) [Entry 230, methyl {5-[2-(5-bromo-2-fluorophenyl)-1-hydroxy-3-oxo-2,3-dihydro-1H-isoindol-1-yl]-1H-benzimidazol-2-yl}carbamate]"
< 100,< 100,"COC(=O)Nc1nc2cc(C3(O)c4ccccc4C(=O)N3c3cccc(NC(C)=O)c3)ccc2[nH]1 (stereo not drawn) [Entry 231, methyl (5-{2-[3-(acetylamino)phenyl]-1-hydroxy-3-oxo-2,3-dihydro-1H-isoindol-1-yl}-1H-benzimidazol-2-yl)carbamate]"
< 100,< 100,"COC(=O)Nc1nc2cc(C3(O)c4ccccc4C(=O)N3c3cccc(Cc4ccccc4)c3)ccc2[nH]1 (stereo not drawn) [Entry 232, methyl (5-{1-hydroxy-3-oxo-2-[3-(phenylmethyl)phenyl]-2,3-dihydro-1H-isoindol-1-yl}-1H-benzimidazol-2-yl)carbamate]"

# Source: patent US7846959B2, “Raf modulators and methods of use” (Exelixis, Inc., priority 2004, dated 2010)
